Results from patent US20240050436A1, “COMPOSITIONS AND METHODS USED FOR RETINAL ISCHEMIA OR DIABETES” (The United States GOVERNMENT As Represented By The …, priority 2021, published 2024).
“Also recorded” adds a separate entry of the source.

Assays:
HREs = experiment: RT-PCR gene expression in HREs treated with CM of p75NTR-modulated MSCs; type: cell-based, human
Method: (§1) GFP-labeled mouse MSCs were obtained as a kind gift from Dr. William D. Hill (MUSC, Charleston, SC) and used between passages 5-9. MSCs cells were cultured in high glucose DMEM (4.5 g/L D-glucose, Thermo-Fisher Grand Island, NY, USA) supplemented with 10% FBS and 1% penicillin/streptomycin at 37° C. and 5% CO2. Knocking down p75NTR expression was performed according to manufacturer's instructions (Santa Cruz Biotechnology Inc., Dallas, TX, USA). Briefly, MSCs were shifted to antibiotic-free medium over night when 60-80% confluent. Cells were transfected with Si-RNA against p75NTR receptor (sc-37268) or scrambled (sc-37007) with the aid of lipofectamine transfection reagent (sc-29528) for 6 h. DMEM medium containing 2× of FBS and antibiotic was added on top of pure transfection medium for an extra 12 h. Next, transfection medium was removed and cells were allowed to recover in 1×DMEM medium for 6 h. For in vivo studies, cells were collected in sterile PBS (50,000 cells/μL) for intravitreal injection 48 h after I/R. For additional set of experiments, MSCs were treated with the p75NTR modulator (LM11A-31, 200 nM). Confluent MSCs (80% confluent) were treated with LM11A-31 or its vehicle for 12 h. Then, condition media were collected as well as cell lysates using mirVANA™ PARIS™ Kit (Ambion Inc., Austin, TX, USA), according to manufacturer's instructions.
All human retinal endothelial (HRE) cell studies were in accordance with Association for Research in Vision and Ophthalmology and Charlie Norwood Veterans Affairs Medical Center, research and ethics committee. HREs and supplies were purchased from Cell Systems Corporation (Kirkland, WA, USA) and VEC Technology Inc. (Rensselaer, NY, USA).
Retinas samples and MSCs lysates were processed using (mirVANA™ PARIS™ Kit, Ambion Inc., Austin, TX, USA) and RNA was purified and quantified as described by the manufacturer's instructions. A one-step quantitative RT-PCR kit (Invitrogen, Carlsbad, CA, USA) was used to amplify 10 ng retinal mRNA. Quantitative PCR was conducted using a StepOnePlus qPCR system (Applied BioSystems, Life Technologies, Waltham, MA, USA). For HREs, RNA isolation was performed using the TRIzol Reagent (Invitrogen, Waltham, MA, USA), according to the manufacturer's instructions. RNA concentration was quantified by spectrophotometry at 260 nm using Nanodrop 2000 (Thermo Fisher Scientific, Waltham, MA, USA). A total of 1 μg of RNA was reverse transcribed to prepare cDNA using the RNA to cDNA EcoDry premix (Takara Bio USA Inc., Mountain View, CA, USA). Real-time PCR was performed using the CFX96 PCR instrument with matched primers (See Table 1) and Universal SYBR Green Supermix (Bio-Rad, Hercules, CA, USA). The following PCR parameters were used: initial denaturation cycle at 95° C. for 3 min, followed by 40 amplification cycles at 95° C. for 10 s, 56° C. for 15 s, and 72° C. for 1 min. The results are presented as the fold change in relative gene expression quantified using the delta-delta CT method and normalized to internal controls (18 S, GAPDH) and expressed relative to controls.

p75^NTR = target: T1, p75^NTR (Mus musculus, UniProt Q9Z0W1); experiment: Interventional treatment of STZ-diabetic mice (16-weeks diabetes): kidney and systemic readouts; type: in vivo; settings: 50 mg/Kg, po, QOD, 12 weeks
T1 construct: Interventional treatment with the p75^NTR modulator LM11A-31 (50 mg/Kg, po, QOD) for 12 weeks; from tissue; host or cells: living STZ-diabetic mice (kidney, urine, blood, body weight)
T1 sequence (Q9Z0W1 32-427): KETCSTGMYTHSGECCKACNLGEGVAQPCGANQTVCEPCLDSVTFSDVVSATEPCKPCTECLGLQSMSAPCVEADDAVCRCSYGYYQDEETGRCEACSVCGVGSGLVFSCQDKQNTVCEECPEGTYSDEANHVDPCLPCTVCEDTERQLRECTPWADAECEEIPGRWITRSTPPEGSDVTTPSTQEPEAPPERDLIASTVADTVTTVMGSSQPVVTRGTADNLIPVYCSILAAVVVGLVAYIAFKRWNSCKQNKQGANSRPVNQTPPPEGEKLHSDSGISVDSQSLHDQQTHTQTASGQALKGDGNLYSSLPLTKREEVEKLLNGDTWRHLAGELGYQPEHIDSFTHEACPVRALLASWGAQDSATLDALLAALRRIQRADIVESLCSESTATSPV

p75^NTR on MSCs = target: T2, p75^NTR on MSCs (Mus musculus, UniProt Q9Z0W1); experiment: MSCs secretome: Western blotting of MSCs conditioned medium (CM); type: cell-based; settings: Western blot of CM vs control CM; LM11A-31: 200 nM, 12 h; or p75NTR siRNA silencing
T2 construct: endogenous in cells; host or cells: GFP-labeled mouse mesenchymal stem cells (passages 5-9)
T2 sequence (Q9Z0W1 32-427): T1 sequence (Q9Z0W1 32-427)
Method: as §1

[1] = HREs treated with CM of modulated MSCs vs controls
[2] = HREs treated with CM of modulated MSCs, fold change, delta-delta CT, relative to controls

CCC(C)C(N)C(=O)NCCN1CCOCC1 (stereo not drawn) [LM11A-31, 2-amino-3-methyl-pentanoic acid [2-morpholin-4-yl-ethyl]-amide]
Akt gene expression in HREs, increase (HREs; [1]): ~2.7 Fold
Bax gene expression in HREs, increase (HREs; [1]): ~1.9 Fold
Bcl-2 gene expression in HREs, increase (HREs; [1]): ~2.5 Fold
VEGF-A gene expression in HREs, increase (HREs; [1]): ~3.5 Fold
p53 gene expression in HREs, change (HREs; [1]): no change
p53 relative gene expression in HREs (mean±SEM) (HREs; HREs treated with CM of modulated MSCs, first value of the printed pair): 3.7±3.4
Akt relative gene expression in HREs (mean±SEM) (HREs; [2]): 2.68±0.53
Bax relative gene expression in HREs (mean±SEM) (HREs; [2]): 1.88±0.105
Bcl-2 relative gene expression in HREs (mean±SEM) (HREs; [2]): 2.45±0.24
VEGF-A relative gene expression in HREs (mean±SEM) (HREs; [2]): 3.58±0.58
UAER normalized to creatinine (p75^NTR; control animals): did not alter baseline
blood glucose level (p75^NTR; control or diabetic animals): did not alter
renal fibrotic markers (Fibronectin, alpha-SMA) (p75^NTR; controls): did not alter base-line
Urinary albumin excretion rate (UAER) normalized to creatinine (p75^NTR; diabetic animals): significantly improved; also recorded: increase
body weight (p75^NTR; diabetic animals): preserved the weight
glomeruli areas (PAS staining) (p75^NTR; diabetic animals): significantly preserved glomeruli areas back to normal glomeruli size
glomeruli size (Trichome staining) (p75^NTR; diabetic animals): preserved glomeruli size
kidney NGF levels, Western Blot (p75^NTR; diabetic animals): restored
kidney TNF-α expression (inflammatory marker), Western Blot (p75^NTR; diabetic animals): significantly prevented the increase; also recorded: significantly improved
kidney p-JNK (apoptotic marker), Western Blot (p75^NTR; diabetic animals): significantly prevented the increase; also recorded: significantly improved
ratio of kidney weight to body weight (p75^NTR; diabetic animals): significantly improved
renal TGF-beta expression (p75^NTR; diabetic animals): significantly prevented the increase; also recorded: significantly improved
renal and urinary inflammation (kidney IL-6 and IL-1β mRNA, urine IL-1β by ELISA) (p75^NTR; diabetic animals): significantly prevented the increase
renal fibrosis (Trichome staining) (p75^NTR; diabetic animals): significantly improved fibrosis
renal fibrotic markers (Fibronectin, alpha-SMA), Western Blot (p75^NTR; diabetic animals): significantly prevented the increase; also recorded: significantly improved
p75^NTR expression in kidney sections (immunohistochemistry) (p75^NTR; diabetic or control animals): did not alter
ratio of kidney weight to body weight (p75^NTR; treated controls): did not alter the baseline
NGF in MSCs conditioned medium, increase (p75^NTR on MSCs): ~4 Fold
SDF-1α in MSCs conditioned medium, increase (p75^NTR on MSCs): ~14.9 Fold
VEGF-A in MSCs conditioned medium, increase (p75^NTR on MSCs): 1.6 Fold
